One assay has as its target T1, human cloned H1 receptor (Homo sapiens, UniProt P35367).
T1 construct: expressed in transfected cells; host or cells: CHO-K1
Description: CHO-K1 H1R binding assay. As to conditions: 3H-pyrilamine 2 nM, CHO-K1 membranes, 3 hours at 37° C.; read-out: CHOH1 K1.

Assay [1] addresses T2, human 5-lipoxygenase enzyme (Homo sapiens, UniProt P09917).
T2 construct: endogenous in cells; host or cells: human whole blood (leukocytes) stimulated with A23187
T2 sequence (P09917 1-674): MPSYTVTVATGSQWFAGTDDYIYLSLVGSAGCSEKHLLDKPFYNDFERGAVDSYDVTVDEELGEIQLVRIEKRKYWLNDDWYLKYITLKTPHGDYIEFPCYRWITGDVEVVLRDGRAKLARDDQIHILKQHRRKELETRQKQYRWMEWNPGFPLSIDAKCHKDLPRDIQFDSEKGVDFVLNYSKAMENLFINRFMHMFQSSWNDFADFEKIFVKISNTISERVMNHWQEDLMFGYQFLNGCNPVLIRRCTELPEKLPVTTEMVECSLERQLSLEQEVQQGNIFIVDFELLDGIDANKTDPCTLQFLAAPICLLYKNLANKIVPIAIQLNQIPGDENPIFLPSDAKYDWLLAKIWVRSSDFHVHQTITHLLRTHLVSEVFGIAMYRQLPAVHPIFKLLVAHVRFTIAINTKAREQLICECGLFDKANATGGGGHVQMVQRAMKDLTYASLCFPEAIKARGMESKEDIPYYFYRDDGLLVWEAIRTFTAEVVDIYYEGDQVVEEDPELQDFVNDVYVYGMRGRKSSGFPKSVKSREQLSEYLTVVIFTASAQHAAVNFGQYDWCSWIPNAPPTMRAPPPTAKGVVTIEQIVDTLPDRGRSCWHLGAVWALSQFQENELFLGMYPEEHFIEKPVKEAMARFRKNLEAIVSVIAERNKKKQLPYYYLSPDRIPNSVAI
Kind of assay: Inhibition of LTB4 production in human whole blood. It is filed as cell-based. As to conditions: human whole blood, calcium ionophore A23187 50 μM, LTB4 by EIA; read-out: HWB IC50. As for the experimental part:
This assay examines the ability of a compound to inhibit leukotriene B4 production from human blood stimulated with calcium ionophore. As this production of leukotriene B4 is mediated via the activation of the 5-lipoxygenase enzyme, this assay is predictive of a compound's ability to inhibit the human 5-lipoxygenase enzyme.
The procedure for the assay is as follows. Blood is drawn from normal human volunteers into tubes containing heparin. 1 ml of the heparinized blood is pipetted into a 1.5 ml polypropylene tube. To this sample is added either different concentrations of the test compound (5 μl) dissolved in DMSO or 5 μl of DMSO as a vehicle control. These samples are incubated in a water bath, at 37° C. for 15 min. 5 μl of the calcium ionophore A23187 (at a final concentration of 50 μM) is then added to each sample, which is vortexed and placed back in the water bath for 30 min. The samples are then centrifuged at 2500 rpm for 10 min. at 4° C. 50 μl of the supernatant is transferred into pre-cooled Eppendorf tubes containing 950 μl of enzyme immunoassay (EIA) buffer. A commercially available EIA kit (Cayman Chemical Co., Ann Arbor, Mich., USA) is used to subsequently measure the LTB4 production in the samples. The LTB4 levels produced in the vehicle control sample is then compared to those in which the test compound has been added. From this a percent inhibition of LTB4 production by each concentration of test compound is calculated and the IC50 for inhibition of LTB4 production for each test compound is determined.

The target of a further assay is T3, 15-lipoxygenase (Oryctolagus cuniculus, UniProt P12530).
T3 construct: from tissue; host or cells: rabbit peritoneal polymorphonuclear leukocytes
T3 sequence (P12530 1-663): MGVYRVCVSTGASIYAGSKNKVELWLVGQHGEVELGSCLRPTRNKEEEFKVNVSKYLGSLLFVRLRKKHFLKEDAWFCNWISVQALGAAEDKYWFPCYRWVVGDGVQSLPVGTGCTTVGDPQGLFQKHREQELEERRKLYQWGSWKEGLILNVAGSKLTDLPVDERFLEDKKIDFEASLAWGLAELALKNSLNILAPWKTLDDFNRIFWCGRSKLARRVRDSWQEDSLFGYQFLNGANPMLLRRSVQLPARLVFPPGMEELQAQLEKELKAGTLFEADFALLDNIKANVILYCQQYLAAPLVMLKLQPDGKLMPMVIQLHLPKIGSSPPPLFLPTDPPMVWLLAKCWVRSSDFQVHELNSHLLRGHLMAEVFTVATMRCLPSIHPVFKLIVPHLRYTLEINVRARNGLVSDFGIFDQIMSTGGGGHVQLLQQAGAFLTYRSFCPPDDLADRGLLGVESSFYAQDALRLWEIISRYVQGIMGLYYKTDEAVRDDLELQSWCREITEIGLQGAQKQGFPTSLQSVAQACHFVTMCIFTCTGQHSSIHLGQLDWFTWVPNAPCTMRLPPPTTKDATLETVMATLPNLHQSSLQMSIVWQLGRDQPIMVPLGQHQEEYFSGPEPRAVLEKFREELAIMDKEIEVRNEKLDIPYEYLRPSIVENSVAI
Description: Inhibition of 15-lipoxygenase (15-HETE production). As to conditions: 15-lipoxygenase from rabbit peritoneal polymorphonuclear leukocytes, 5 min at 37° C. It is filed as biochemical. An excerpt:
This assay examines the ability of a compound to inhibit production of 15-hydroxy-5, 8, 11, 13-eicosatetraenoic acid (15-HETE) via the action of 15-lipoxygenase on arachidonic acid. 15-lipoxygenase was purified from rabbit peritoneal polymorphonuclear leukocytes. The enzyme is responsible for the conversion of arachidonic acid (via oxygenation at carbon 15 of arachidonic acid) to 15-hydroperoxy-5, 8, 11, 13-eicosatetraenoic acid (15-HPETE), which then reduced to 15-hydroxy-5, 8, 11, 13-eicosatetraenoic acid (15-HETE).
The procedure for the assay is as follows. Arachidonic acid is co-incubated with […] for 5 min at 37° C. in the presence or absence of different concentrations of test compound (10^−8 to 10^−5 M). Production of 15-HETE in each sample is then measured by radioimmunoassay. The 15-HETE levels produced in the vehicle control sample are then compared to those in which the test compound has been added.

Assay [2] concerns histamine-induced bronchoconstriction. Description: Antihistaminergic activity in vivo (histamine-induced bronchoconstriction). Conditions: Cavia porcellus; guinea pig, oral, 5 mg/kg, 3 hrs. As for the experimental part:
Male, Hartley guinea pigs are obtained from Charles River Labs at a body weight of 350 -400 grams. Inhibition of histamine activity is measured by the method of Konzett and Rössler (Naonyn-Schmiedebergs Arch. Exp. Path. Pharmakol. 195, 71-74 (1940). Anaethetized guinea pigs are subjected to artificial ventilation. The endotracheal pressure is recorded. Bronchoconstriction is induced by successive intravenous injections of histamine. The test compounds are administered orally in a 1% methocellulose suspension at set timepoints prior to the administration of histamine.
The results (Table 2) show the percent inhibition of histamine-induced bronchoconstriction by selected compounds at multiple time points post oral dosing. 50% inhibition or greater is considered significant.

A further assay relates to 5-lipoxygenase. Description: 5-Lipoxygenase inhibitory activity in vivo. Conditions: guinea pig, oral, 2 mg/kg, 1 hour. The method, then: Male, Hartley guinea pigs are obtained from Charles River Labs at a body weight of 350-400 grams. Compounds are prepared at a volume of [1-2 mg/ml] in 1% methocellulose for oral dosing. Animals are separated into groups of five (5). Each assay includes a control group dosed with vehicle. Each group of animals is dosed with either vehicle or compound by oral gavage. Animals are allowed to rest for one, three, or six hours after dosing. Control animals are allowed to rest for three hours. At the appropriate times, the animals are anesthetized with Urethane at 1.5 g/kg, ip. Blood is drawn into a heparinized syringe via cardiac puncture. Blood (0.5 ml) is aliquoted into separately-labeled 1.5 ml eppendorf tubes. Each sample is loaded with 5 μl of [15 mM] Arachidonic Acid, and placed in a 37° C. water bath for five minutes. After five minutes, the blood is stimulated with 5 μl of [5 mM] A23187 (Calcium Ionophore) and retained in the water bath for an additional 30 minutes. After the thirty minutes, the blood samples are removed from the water bath and centrifuged at 14,000 rpm for 2 minutes. Plasma is diluted to EIA buffer and an EIA is performed following manufacturer instructions (Cayman Chemical Co., Ann Arbor, Mich., USA). The results (Table 3) show the percent inhibition of 5-lipoxygenase by selected compounds at multiple time points post oral dosing. 50% inhibition or greater is considered significant.

T1 sequence (P35367 whole entry): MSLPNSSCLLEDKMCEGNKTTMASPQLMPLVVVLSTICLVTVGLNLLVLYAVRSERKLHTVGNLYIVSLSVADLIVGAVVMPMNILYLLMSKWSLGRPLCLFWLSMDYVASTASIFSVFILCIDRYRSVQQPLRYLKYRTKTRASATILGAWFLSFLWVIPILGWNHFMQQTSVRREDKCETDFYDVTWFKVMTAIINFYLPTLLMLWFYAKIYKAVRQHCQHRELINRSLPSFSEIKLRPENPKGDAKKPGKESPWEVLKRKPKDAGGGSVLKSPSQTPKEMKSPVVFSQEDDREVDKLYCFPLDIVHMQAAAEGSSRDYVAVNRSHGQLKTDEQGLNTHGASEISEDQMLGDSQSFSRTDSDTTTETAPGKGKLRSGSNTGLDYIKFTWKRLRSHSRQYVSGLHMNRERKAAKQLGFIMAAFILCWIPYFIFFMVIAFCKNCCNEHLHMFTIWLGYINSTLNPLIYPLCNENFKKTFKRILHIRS
Description for human cloned H1 receptor: CHO-K1 cells expressing the human cloned H1 receptor are grown to confluence in tissue culture dishes. Cells are harvested using D-PBS buffer (JRH Biosciences), kept at 4° C., centrifuging to pellet cells (4° C., 500 g, 10 min). The final cell pellet is homogenized and resuspended using Tris/sucrose buffer (20 mM Tris, 250 mM sucrose, pH 7.4 at 4° C.). Aliquots of the membrane preparation are stored at −70° C.
On the day of assay, the membrane preparation is thawed and centrifuged (TLA100.3 rotor, 4° C., 15 min, 23,000 rpm). The pellet is resuspended in Tris/sucrose buffer initially and then diluted further as necessary using assay buffer A (50 mM Na/KPO4, 2 mM MgCl2, 0.5% (w/v) BSA, pH 7.5).
For the binding assay, the membrane preparation, test compound and ^3H-pyrilamine (2 nM final) in buffer A with 1% (v/v) DMSO final are incubated in a 96-well polypropylene plate for 3 hours at 37° C. Non-specific binding is determined in the presence of 10 μM pyrilamine. A 96-well harvester (Packard) is used to harvest the 96-well plate onto a GF/B filter plate pre-treated with 0.1% (v/v) PEI. The plate is counted in a Packard Topcounter after adding Microscint 20 (Packard) scintillation fluid. The Ki for each compound at the histamine H1 receptor is then calculated from these counts.

On to `NC(=O)N(O)Cc1ccc(OCCN2CCN([C@H](c3ccccc3)c3ccc(Cl)cc3)CC2)cc1` [Compound 1, N-{[4-(2-{4-[(1R) (4-chlorophenyl)phenylmethyl]piperazinyl}ethoxy)phenyl]methyl} amino-N-hydroxyamide], for which, at human cloned H1 receptor, the Ki was determined as 24 nM. The IC50 came out at 1520 nM in assay [1] and 1300 nM at 15-lipoxygenase. Moreover, the inhibition in vivo at 5 mg/kg in assay [2] was 56%. For the same compound, the “% inhibition of 5-lipoxygenase” value in the assay on 5-lipoxygenase was found to be 62%.

(Values after US6451801B1, “Compounds and methods for treatment of asthma, allergy and inflammatory disorders” (UCB, S.A., priority 1999, dated 2002).)
